This is an account of results in patent US11634412B2, “3-phosphoglycerate dehydrogenase inhibitors and uses thereof” (Raze Therapeutics, Inc., priority 2016, dated 2023).

SMILES strings stand for the structures.

The assay has as its target T1, Full length (FL) 3-Phosphoglycerate Dehydrogenase (PHGDH) (Homo sapiens, UniProt O43175).
T1 construct: Full length (FL) 3-Phosphoglycerate Dehydrogenase (PHGDH) Diaphorase coupled assay (500 uM NAD)
T1 sequence (O43175 1-533): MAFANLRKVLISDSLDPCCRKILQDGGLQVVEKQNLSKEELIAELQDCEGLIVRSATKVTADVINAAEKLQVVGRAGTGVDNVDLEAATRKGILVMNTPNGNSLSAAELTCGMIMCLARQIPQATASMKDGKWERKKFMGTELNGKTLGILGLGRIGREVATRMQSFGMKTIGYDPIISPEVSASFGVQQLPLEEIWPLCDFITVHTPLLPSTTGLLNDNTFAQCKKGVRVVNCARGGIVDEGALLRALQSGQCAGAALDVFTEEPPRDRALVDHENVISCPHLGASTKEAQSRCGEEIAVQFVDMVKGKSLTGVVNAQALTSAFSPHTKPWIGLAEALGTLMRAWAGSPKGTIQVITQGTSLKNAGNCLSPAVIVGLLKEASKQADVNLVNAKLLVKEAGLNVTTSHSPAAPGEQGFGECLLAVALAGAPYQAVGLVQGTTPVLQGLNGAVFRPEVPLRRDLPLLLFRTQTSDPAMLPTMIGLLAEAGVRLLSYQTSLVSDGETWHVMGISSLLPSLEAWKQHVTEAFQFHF
The assay can be described thus: Full length (FL) PHGDH Diaphorase coupled assay (500 uM NAD). Format: biochemical. Conditions: full-length PHGDH 5 nM, 30° C. 60 minutes, resorufin fluorescence. As for the experimental part: Full length (FL) 3-Phosphoglycerate Dehydrogenase (PHGDH) Diaphorase coupled assay (500 uM NAD)
PHGDH activity was determined by detecting the NADH produced during the reaction. Diaphorase was used to catalyze the oxidation of NADH with the concomitant reduction of resazurin to the fluorescent product resorufin. Resorufin fluorescence quantitatively reflected the production of NADH by the PHGDH reaction. To drive the forward reaction, two enzymes in the serine synthesis pathway subsequent to PHGDH, Phosphoserine aminotransferase (PSAT1) and phosphoserine phosphatase (PSPH) were also added to the reaction.
Briefly, serial dilution of compounds were incubated in a volume of 20 μL in 384 well plates with the assay mixture containing 5 nM PHGDH, 500 nM PSAT1, 500 nM PSPH, 500 μM NAD^+, 80 uM 3-phosphoglycerate, 1 mM glutamate, 57 uM Resazurin and 0.2 mg/ml Diaphorase in assay buffer containing 50 mM Trisethanoloamine (TEA) pH8.0, 10 mM MgCl2, 0.01% Tween-20 and 0.05% Bovine Serum Albumin (BSA). The plate was then incubated at 30° C. for 60 minutes and resorufin fluorescence was measured at emission wavelength 598 nm following excitation at 525 nm. The positive control consisted of the complete reaction mixture with 4% DMSO and was set to 0% inhibition.
The IC50 is the concentration that gives 50% inhibition. Low readings indicate higher potency, high ones lower potency. Regarding `Cn1c(C(=O)NC2(c3ccc(C(C(=O)O)C4CCCC4)cc3)COC2)cc2c(Cl)c(Cl)ccc21` (racemic) [I-25 e136, (±)-2-Cyclopentyl-2-[4-[3-[(4,5-dichloro-1-methyl-indole-2-carbonyl)amino]oxetan-3-yl]phenyl]acetic acid], the IC50 was in the range of 1 to 1000 nM.
With `CCC(C(=O)O)c1ccc(C2(NC(=O)c3cc4c(Cl)c(Cl)ccc4n3C)COC2)cc1` (racemic) [I-42 e133], the half-maximal inhibitory concentration (IC50) lay in the range of 1 to 1000 nM.
Turning to `COc1cc2c(cc(C(=O)NC3(c4ccc(C(=O)O)cc4Cl)COC3)n2C)c(Cl)c1C` [I-46 e73], the IC50 was in the range of 1 to 1000 nM.
For `Cn1c(C(=O)NC2(c3ccc(C(=O)O)cc3)CCOC2)cc2c(Cl)c3c(cc21)OCCO3` (racemic) [I-113 e35] the value was 1 to 1000 nM; for `Cn1c(C(=O)NC2(c3ccc(C(C)(C)C(=O)O)cc3)COC2)cc2c(Cl)c(Cl)ccc21` [I-36 e107], 1 to 1000 nM; for `Cc1cc(CC(=O)O)ccc1C1(NC(=O)c2cc3c(Cl)c(Cl)ccc3n2C)COC1` [I-82 e51], 1 to 1000 nM.
For `COc1ccc2c(cc(C(=O)NC3(c4ccc(C(C)C(=O)O)cc4)CCOC3)n2C)c1Cl` (racemic) [I-64 e57] the value was 1 to 1000 nM; for `COc1cc2c(cc(C(=O)NC3(c4ccc(C(=O)O)cc4Cl)COC3)n2C)c(Cl)c1Cl` [I-66 e67], 1 to 1000 nM; for `COc1ccc2c(cc(C(=O)NC3(c4ccc(C(C)C(=O)O)cc4F)CCOC3)n2C)c1Cl` (racemic) [I-40 e55], 1 to 1000 nM.
Consider `C[C@@H](C(=O)O)c1ccc(C2(NC(=O)c3cc4c(Cl)c(Cl)ccc4n3C)COC2)cc1` (single isomer, unassigned) [I-34 or I-35 e161 peak 2], for which the IC50 was in the range of 1 to 1000 nM.
The compound `COc1ccc2c(cc(C(=O)NC3(c4ccc(C(C(=O)O)C5CCC5)cc4)COC3)n2C)c1Cl` (racemic) [I-13 e111] showed an IC50 of 1 to 1000 nM.
The figure for `COc1ccc2c(cc(C(=O)NC3(c4ccc(C(C)C(=O)O)cc4F)COC3)n2C)c1Cl` (racemic) [I-49 e60] is 1 to 1000 nM.
Take `Cn1c(C(=O)NC2(c3ccc(C(=O)O)cc3F)COC2)cc2c(Cl)c(Cl)ccc21` [I-79 e41]: the IC50 is 1 to 1000 nM.
`COc1cc2c(cc(C(=O)NC3(c4ccc(C(C(=O)O)C5CCC5)cc4)COC3)n2C)c(Cl)c1Cl` (racemic) [I-7 e117] had an IC50 of 1 to 1000 nM.
Turning to `C[C@H](C(=O)O)c1ccc(C2(NC(=O)c3cc4c(Cl)c(Cl)ccc4n3C)COC2)cc1` (single isomer, unassigned) [I-35 or I-34 e160 peak 1], the IC50 was 1 to 1000 nM.
On to `Cn1c(C(=O)NC2(c3ccc(C(=O)O)cc3)CCOC2)cc2c(Cl)c(Cl)c(OCC3CCOC3)cc21` (racemic) [I-92 e101], for which the IC50 was in the range of 1 to 1000 nM.
Take `COc1ccc2c(cc(C(=O)NC3(c4ccc(CC(=O)O)cc4)CCOC3)n2C)c1Cl` (racemic) [I-78 e40]: the IC50 lay in the range of 1 to 1000 nM.
`Cn1c(C(=O)NC2(c3ccc(C4(C(=O)O)CC4)cc3)CCOC2)cc2c(Cl)c(Cl)ccc21` (racemic) [I-59 e38] returned an IC50 of 1 to 1000 nM.
Turning to `COc1cc2c(cc(C(=O)NC3(c4ccc(C(=O)O)cc4C)COC3)n2C)c(Cl)c1C` [I-45 e74], the IC50 lay within 1 to 1000 nM.
For `CCCC(C(=O)O)c1ccc(C2(NC(=O)c3cc4c(Cl)c(Cl)c(OC)cc4n3C)COC2)cc1` (racemic) [I-38 e115] the value was 1 to 1000 nM.
`COc1cc2c(cc(C(=O)NC3(c4ccc(C(CC5CC5)C(=O)O)cc4)COC3)n2C)c(Cl)c1Cl` (racemic) [I-4 e123] displayed an IC50 of 1 to 1000 nM.
The figure for `Cn1c(C(=O)NC2(c3ccc(C(=O)O)cc3)CCOC2)cc2c(Cl)c(F)ccc21` (racemic) [I-106 e31] is 1000 to 5000 nM.
For `Cn1c(C(=O)NC2(c3ccc(C(=O)O)cc3)CCOC2)cc2c(Cl)c(Cl)c(OCC3COC3)cc21` (racemic) [I-80 e103], the IC50 was 1 to 1000 nM.
`CN1CC(COc2cc3c(cc(C(=O)NC4(c5ccc(C(=O)O)cc5)CCOC4)n3C)c(Cl)c2Cl)OC1=O` (racemic) [I-93 e106] came in with an IC50 of 1 to 1000 nM.
For `Cn1c(C(=O)NC2(c3ccc(C(=O)O)c(C4CC4)c3)CCOC2)cc2c(Cl)c(Cl)ccc21` (racemic) [I-101 e157, (±)-2-cyclopropyl-4-[3-[(4,5-dichloro-1-methyl-indole-2-carbonyl)amino]-tetrahydrofuran-3-yl]benzoic acid], the IC50 is 1000 to 5000 nM.
For `CC(=O)N1CCC(NC(=O)c2cc3c(Cl)c(Cl)ccc3n2C)(c2ccc(C(=O)O)cc2)C1` (racemic) [I-110 e20] the value was 1 to 1000 nM.
Regarding `COc1cc2c(cc(C(=O)NC3(c4ccc(C(=O)O)cc4F)COC3)n2C)c(Cl)c1F` [I-56 e78], the IC50 lay within 1 to 1000 nM.
Consider `Cc1cc(C(=O)O)ccc1C1(NC(=O)c2cc3c(Cl)c(Cl)ccc3n2C)CCOC1` (racemic) [I-99 e89], for which the concentration for half-maximal inhibition (IC50) was 1 to 1000 nM.
Compound `CC(C)C(C(=O)O)c1ccc(C2(NC(=O)c3cc4c(Cl)c(Cl)ccc4n3C)COC2)cc1` (racemic) [I-30 e134] returned an IC50 of 1 to 1000 nM.
Compound `COc1ccc2c(cc(C(=O)NC3(c4ccc(CC(=O)O)cc4Cl)COC3)n2C)c1Cl` [I-32 e64] showed an IC50 of 1 to 1000 nM.
On to `CC(C(=O)O)c1ccc(C2(NC(=O)c3cc4c(Cl)c(Cl)ccc4n3C)CCOC2)cc1` (racemic) [I-105 e152, (±)-2-[4-[3-[(4,5-dichloro-1-methyl-indole-2-carbonyl)amino]tetrahydrofuran-3-yl]phenyl]propanoic acid], for which the IC50 fell in the range of 1 to 1000 nM.
For `Cn1c(C(=O)NC2(c3ccc(C(=O)O)c(C#N)c3)CCOC2)cc2c(Cl)c(Cl)ccc21` (racemic) [I-120 e154, (±)-2-Cyano-4-(3-(4,5-dichloro-1-methyl-1H-indole-2-carboxamido)tetrahydrofuran-3-yl)benzoic acid] the value was 1 to 1000 nM; for `Cn1c(C(=O)NC2(c3ccc(C(=O)O)cc3)CCN(CC(F)(F)F)C2)cc2c(Cl)c(Cl)ccc21` (racemic) [I-125 e19], 1000 to 5000 nM; for `CCN1CCC(NC(=O)c2cc3c(Cl)c(Cl)ccc3n2C)(c2ccc(C(=O)O)cc2)C1` (racemic) [I-126 e18], 5000 to 10000 nM.
Consider `Cn1c(C(=O)NC2(c3ccc(C(C(=O)O)C4CC4)cc3)CCOC2)cc2c(Cl)c(Cl)ccc21` (racemic) [I-15 e162, (±)-2-Cyclopropyl-2-(4-(3-(4,5-dichloro-1-methyl-1H-indole-2-carboxamido)tetrahydrofuran-3-yl)phenyl)acetic acid], for which the IC50 is 1 to 1000 nM.
For the compound `CC(C)CC(C(=O)O)c1ccc(C2(NC(=O)c3cc4c(Cl)c(Cl)ccc4n3C)COC2)cc1` (racemic) [I-9 e137, (±)-2-(4-(3-(4,5-Dichloro-1-methyl-1H-indole-2-carboxamido)oxetan-3-yl)phenyl)-4-methylpentanoic acid], the IC50 was 1 to 1000 nM.
`COCCOc1cc2c(cc(C(=O)NC3(c4ccc(C(=O)O)cc4)CCOC3)n2C)c(Cl)c1Cl` (racemic) [I-100 e99] came in with an IC50 of 1 to 1000 nM.
In the case of `COc1ccc2c(cc(C(=O)NC3(c4ccc(C(C(=O)O)C5CCCCC5)cc4)COC3)n2C)c1Cl` (racemic) [I-156 e119], the IC50 was 1 to 1000 nM.
The compound `Cc1cc(C2(NC(=O)c3cc4c(Cl)c(Cl)ccc4n3C)CCOC2)ccc1C(=O)O` (racemic) [I-98 e155, (±)-4-[3-[(4,5-Dichloro-1-methyl-indole-2-carbonyl)amino]tetrahydro-furan-3-yl]-2-methyl-benzoic acid] had an IC50 of 1 to 1000 nM.
Regarding `COc1ccc2c(cc(C(=O)NC3(c4ccc(C(C(=O)O)C5CCC(O)CC5)cc4)COC3)n2C)c1Cl` (racemic) [I-160 e138, (±)-2-[4-[3-[(4-Chloro-5-methoxy-1-methyl-indole-2-carbonyl)amino]oxetan-3-yl]phenyl]-2-(4-hydroxycyclohexyl)acetic acid], the IC50 was in the range of 1 to 1000 nM.
The figure for `Cn1c(C(=O)NC2(c3ccc(C(C(=O)O)C4CCCC4)cc3)CCOC2)cc2c(Cl)c(Cl)ccc21` (racemic) [I-16 e87] is 1 to 1000 nM; for `COc1cc2c(cc(C(=O)NC3(c4ccc(C(=O)O)cc4C)COC3)n2C)c(Cl)c1Cl` [I-51 e68] it is 1 to 1000 nM; for `COc1cc2c(cc(C(=O)NC3(c4ccc(C(C)C(=O)O)cc4F)CCOC3)n2C)c(Cl)c1Cl` (racemic) [I-55 e54] it is 1 to 1000 nM.
`Cn1c(C(=O)NC2(c3ccc(C(=O)O)cc3F)CCOC2)cc2c(Cl)c(Cl)ccc21` (racemic) [I-118 e29]: the IC50 lay within 1 to 1000 nM.
In turn, `Cn1c(C(=O)NC2(c3ccc(C(=O)O)cc3)CCOC2)cc2c(Cl)cccc21` (racemic) [I-117 e30] registered an IC50 of 1000 to 5000 nM.
